We go through 16 molecules from PMC9820559, “Investigation of the Fuzzy Complex between RSV Nucleoprotein and Phosphoprotein to Optimize an Inhibition Assay by Fluorescence Polarization” (International Journal of Molecular Sciences, 2022).

Peptide text beside a SMILES is read from it. * marks the point of attachment. FITC = O=C1OC2(c3ccc(O)cc3Oc3cc(O)ccc32)c2ccc(NC(=S)*)cc21; X1 = Cc1cc(C)n2c1C=C1C=CC(CCC(=O)*)=[N+]1[B-]2(C#N)C#N

This experiment has as its target T1, RSV N-RNA complex (Human respiratory syncytial virus A, UniProt P03418).
T1 construct: Full-length N was produced by co-expression with the C-terminal domain of RSV P protein in E. coli BL21(DE3); made in house; host or cells: E. coli BL21(DE3), co-transformed with pET-N and pGEX-P(161–241)
Kind of experiment: biochemical. Format: binding. The conditions noted are these: for FP values compared to fluorescein at the same N-RNA concentrations: 200 nM probe, also bound to N-RNA. The method, then:
We carried out FP measurements using the fluorescent F11 peptide and N-RNA complex. […] No salt was added to promote high affinity.
We first measured binding of Fn peptides (200 nM) to N-RNA in Tris buffer by FP (Figure 5A,B). […] We fitted the data with ΔFPmax and Kd as parameters.
We therefore measured fluorescein FP in the presence of N-RNA. […] To test if fluorescein binds to the P-binding site on the N-RNA, we carried out a competition experiment with M76 (Figure 6C).
We first performed FP measurements in salt-free Tris pH 8 buffer (Figure 8A). We measured binding curves using 200 nM of fluorescent peptides.
Fluorescence polarization measurements were carried out on a Paradigm Detection Platform (Beckman Coulter, Brea, CA, USA) operating with a microplate reader, a fluorescein detection cartridge (excitation range 485/20 nm, emission range 535/25 nm for both parallel and perpendicular components) and the SpectraMax Pro 6.1 software (Molecular Devices, San Jose, CA, USA). Samples were placed in polystyrene black flat bottom 96-well microplates (Cellstar, Greiner bio-one, Frickenhausen, Germany) with 20 µL final volume in each well. If not stated otherwise, the final concentration of fluorescent ligands was 200 nM. The buffer was either 20 mM MES pH 6.5, salt-free or with 250 mM NaCl, or 20 mM Tris pH 8.0 salt-free or with 100 mM NaCl, supplemented with 0.01% Brij-35. Mixing was done using the corresponding plate reader option. The temperature was set to 20 °C. Data were recorded in top reading mode. Measurements were done in triplicate and after an incubation time of 30 min, if not indicated otherwise. Fluorescence polarization (FP) in mFP units was determined from the parallel (I∥) and perpendicular (I⊥) components of the emitted light according to Equation (4). A grating factor G of 1.2 was determined using 1 nM fluorescein in 1 mM NaOH and assuming a theoretical FP of 27 mFP [48]. Background signal was measured from wells containing only buffer, and the mean value was subtracted from each I∥ and I⊥ component. (4) FP (mP)=1000×(I∥−G∗I⊥)/(I∥+G×I⊥)
We assumed that the measured fluorescence polarization FP is a linear combination of the FP of the fluorescent probe in the absence of N protein (FPmin) and the FP of N-bound fluorescent probe (FPmax), weighted by the molar fraction. The molar fraction x = [P]bound/[P]0 can then be expressed as a ratio of FP differences (Equation (8)). (8) x=(FP−FPmin)/(FPmax−FPmin)=∆FP/∆FPmax
To determine the Kd value of a complex between a fluorescent probe and N protein, a series of samples with constant probe concentration and varying N concentration was measured. FP binding curves were fitted with a single binding site model and a 1:1 stoichiometry.

Setting [1] is: apparent Kd, fluorescent molecules 200 nM, Tris pH 8 without salt, calculated assuming FPmax = 500 mFP.
Where [2] appears, read: Kd, Fn peptides 200 nM, Tris pH 8.0 without salt, single site binding model.
Where [3] appears, read: Kd, BCNn peptides 200 nM, Tris pH 8.0, no salt, single site model.
Where [4] appears, read: Kd, Fn peptides 200 nM, Tris pH 8.0 without salt, single site model combined with linear contribution (*).

On to `Cc1cc(C)n2c1C=C1C=CC(CCC(=O)O)=[N+]1[B-]2(F)F` [4,4′ difluoro BODIPY FL 4, 4,4′ difluoro BODIPY FL], for which the “FP values compared to fluorescein at the same N-RNA concentrations” value (Tris pH 8 without salt) is given as “markedly lower”. Moreover, the Kd under setting [1] is 870000 ± 140000 nM. On to `CC(C)C[C@H](NC(=O)[C@H](CCC(=O)O)NC(=O)[C@H](CC(C)C)NC(=O)[C@H](CC(=O)O)NC(=O)[C@H](CC(N)=O)NC(=O)[C@H](CC(=O)O)NC(=S)Nc1ccc2c(c1)C(=O)OC21c2ccc(O)cc2Oc2cc(O)ccc21)C(=O)N[C@@H](CCC(=O)O)C(=O)N[C@@H](CC(=O)O)C(=O)N[C@@H](Cc1ccccc1)C(=O)O` [F9E, ϕ-DNDLE237LEDF-OH] ({FITC}-DNDLELEDF-OH), for which the Kd under setting [2] was 2200 ± 300 nM. Turning to `Cc1cc(C)n2c1C=C1C=CC(CCC(=O)N[C@@H](CC(=O)O)C(=O)N[C@@H](CO)C(=O)N[C@@H](CC(=O)O)C(=O)N[C@@H](CC(N)=O)C(=O)N[C@@H](CC(=O)O)C(=O)N[C@@H](CC(C)C)C(=O)N[C@@H](CCC(=O)O)C(=O)N[C@@H](CC(C)C)C(=O)N[C@@H](CCC(=O)O)C(=O)N[C@@H](CC(=O)O)C(=O)N[C@@H](Cc3ccccc3)C(=O)O)=[N+]1[B-]2(C#N)C#N` [BCN11SE] (X1-DSDNDLELEDF-OH), the Kd under setting [3] was 800 nM. With `CC(C)C[C@H](NC(=O)[C@H](CCC(=O)O)NC(=O)[C@H](CC(C)C)NC(=O)[C@H](CC(=O)O)NC(=O)[C@H](CC(N)=O)NC(=O)[C@H](CC(=O)O)NC(=O)[C@H](CCC(=O)O)NC(=O)[C@H](CC(=O)O)NC(=S)Nc1ccc2c(c1)C(=O)OC21c2ccc(O)cc2Oc2cc(O)ccc21)C(=O)N[C@@H](CCC(=O)O)C(=O)N[C@@H](CC(=O)O)C(=O)N[C@@H](Cc1ccccc1)C(=O)O` [F11EE, ϕ-DE232DNDLE237LEDF-OH] ({FITC}-DEDNDLELEDF-OH), the ΔFPmax is 114 ± 6 mFP (Fn peptides 200 nM, Tris pH 8.0 without salt, single site binding model) and 93 ±13 mFP (Fn peptides 200 nM, Tris pH 8.0 without salt, single site model combined with linear contribution (*)). Under setting [4], the Kd is 150 nM. For the same molecule, the “increase of affinity relative to F11 by phosphomimetic substitutions” value (Tris pH 8.0 without salt) turned out to be 20 fold.

As for `CC(C)C[C@H](NC(=O)[C@H](CCC(=O)O)NC(=O)[C@H](CC(C)C)NC(=O)[C@H](CC(=O)O)NC(=S)Nc1ccc2c(c1)C(=O)OC21c2ccc(O)cc2Oc2cc(O)ccc21)C(=O)N[C@@H](CCC(=O)O)C(=O)N[C@@H](CC(=O)O)C(=O)N[C@@H](Cc1ccccc1)C(=O)O` [F7E, ϕ-DLE237LEDF-OH] ({FITC}-DLELEDF-OH), the Kd under setting [2] came to 2500 ± 300 nM. For `Cc1cc(C)n2c1C=C1C=CC(CCC(=O)O)=[N+]1[B-]2(C#N)C#N` [dicyano BODIPY FL 5, 3-(5,5-dicyano-7,9-dimethyl-5H-4λ^4,5λ^4-dipyrrolo[1,2-c:2′,1′-f][1,3,2]diazaborinin-3-yl)propanoic acid], for the setting “Tris pH 8 without salt”, the “FP values compared to fluorescein at the same N-RNA concentrations” value is reported as “markedly lower”. As to `O=C(O)c1ccccc1-c1c2ccc(=O)cc-2oc2cc(O)ccc12` [Fluorescein 1, Fluorescein], under setting [1], the Kd is 91000 ± 5000 nM. In the case of `Cc1cc(C)n2c1C=C1C=CC(CCC(=O)N[C@@H](CCC(=O)O)C(=O)N[C@@H](CC(=O)O)C(=O)N[C@@H](CC(N)=O)C(=O)N[C@@H](CC(=O)O)C(=O)N[C@@H](CC(C)C)C(=O)N[C@@H](CCC(=O)O)C(=O)N[C@@H](CC(C)C)C(=O)N[C@@H](CCC(=O)O)C(=O)N[C@@H](CC(=O)O)C(=O)N[C@@H](Cc3ccccc3)C(=O)O)=[N+]1[B-]2(C#N)C#N` [BCN10EE] (X1-EDNDLELEDF-OH), under setting [3], the Kd was found to be 160 ± 30 nM. Regarding `O=C(O)CC[C@H](NC(=S)Nc1ccc2c(c1)C(=O)OC21c2ccc(O)cc2Oc2cc(O)ccc21)C(=O)N[C@@H](CC(=O)O)C(=O)N[C@@H](Cc1ccccc1)C(=O)O` [F3, ϕ-EDF-OH] ({FITC}-Glu-Asp-Phe-OH), under setting [2], the Kd is 62000 ± 19000 nM. On the same count and under the same terms, with `CC(C)C[C@H](NC(=S)Nc1ccc2c(c1)C(=O)OC21c2ccc(O)cc2Oc2cc(O)ccc21)C(=O)N[C@@H](CCC(=O)O)C(=O)N[C@@H](CC(=O)O)C(=O)N[C@@H](Cc1ccccc1)C(=O)O` [F4, ϕ-LEDF-OH] ({FITC}-LEDF-OH) the figure was 35000 ± 4000 nM. On to `Cc1cc(C)n2c1C=C1C=CC(CCC(=O)N[C@@H](CCC(=O)O)C(=O)N[C@@H](CC(C)C)C(=O)N[C@@H](CCC(=O)O)C(=O)N[C@@H](CC(=O)O)C(=O)N[C@@H](Cc3ccccc3)C(=O)O)=[N+]1[B-]2(C#N)C#N` [BCN5E, BCN-ELEDF-OH] (X1-ELEDF-OH), for which the Kd under setting [3] was 9800 ± 900 nM.

Consider `CCOC(=O)c1ccccc1-c1c2ccc(=O)cc-2oc2cc(O)ccc12` [Fluorescein ethyl ester 3, fluorescein ethyl ester], for which, under setting [1], the Kd was 250000 ± 27000 nM.

With `Cc1cc(C)n2c1C=C1C=CC(CCC(=O)N[C@@H](CC(=O)O)C(=O)N[C@@H](CC(C)C)C(=O)N[C@@H](CCC(=O)O)C(=O)N[C@@H](CC(C)C)C(=O)N[C@@H](CCC(=O)O)C(=O)N[C@@H](CC(=O)O)C(=O)N[C@@H](Cc3ccccc3)C(=O)O)=[N+]1[B-]2(C#N)C#N` [BCN7E, BCN-DLELEDF-OH] (X1-DLELEDF-OH), the Kd under setting [3] was determined as 2200 ± 200 nM. On to `Cc1cc(C)n2c1C=C1C=CC(CCC(=O)N[C@@H](CC(C)C)C(=O)N[C@@H](CCC(=O)O)C(=O)N[C@@H](CC(C)C)C(=O)N[C@@H](CCC(=O)O)C(=O)N[C@@H](CC(=O)O)C(=O)N[C@@H](Cc3ccccc3)C(=O)O)=[N+]1[B-]2(C#N)C#N` [BCN6E, BCN-LELEDF-OH] (X1-LELEDF-OH), for which the Kd is, setting by setting: under setting [3], 2300 ± 200 nM; (Kd, BCNn peptides 200 nM, Tris pH 8.0, with salt (100 mM NaCl), (*) saturation not reached) 12600 ± 1600 nM. For `COC(=O)c1ccccc1-c1c2ccc(=O)cc-2oc2cc(O)ccc12` [Fluorescein methyl ester 2, fluorescein methyl ester], the Kd under setting [1] was 200000 ± 8000 nM. Turning to `CC(C)C[C@H](NC(=O)[C@H](CCC(=O)O)NC(=O)[C@H](CC(C)C)NC(=O)[C@H](CC(=O)O)NC(=O)[C@H](CC(N)=O)NC(=O)[C@H](CC(=O)O)NC(=O)[C@H](CO)NC(=O)[C@H](CC(=O)O)NC(=S)Nc1ccc2c(c1)C(=O)OC21c2ccc(O)cc2Oc2cc(O)ccc21)C(=O)N[C@@H](CCC(=O)O)C(=O)N[C@@H](CC(=O)O)C(=O)N[C@@H](Cc1ccccc1)C(=O)O` [F11SE, ϕ-DS232DNDLE237LEDF-OH] ({FITC}-DSDNDLELEDF-OH), the Kd runs as follows: under setting [2], < 1000 nM; under setting [4], 620 nM.
